What all share (assay type): functional, cell-based
One experiment has as its system U-937. Description: Antiproliferative activity against human U937 cells after 72 hrs by WST1 based assay. The settings on record: U-937, 72 h.
The next experiment relates to Jurkat. Briefly: Antiproliferative activity against human Jurkat T cells after 72 hrs by WST1 based assay.
For a further experiment, the system named is MCF7. Briefly: Antiproliferative activity against human MCF7 cells after 72 hrs by WST1 based assay. Conditions: MCF7, 72 h. In general terms: Tetrazolium dyes change colour on reduction, which living cells bring about.
The test system of the next experiment is HL-60. Description: Antiproliferative activity against human HL60 cells after 72 hrs by WST1 based assay. The settings on record: HL-60, 72 h.
The next experiment concerns Caco-2. Description: Antiproliferative activity against human CaCo2 cells after 72 hrs by WST1 based assay. The settings on record: Caco-2, 72 h.
A further experiment relates to HCT-116. Briefly: Antiproliferative activity against human HCT116 cells after 72 hrs by WST1 based assay. Conditions: HCT-116, 72 h.

One may read the IC50 as the concentration at which inhibition is half-maximal. A lower IC50 goes with higher potency.

For `C=C1C(=O)O[C@@H]2C3O[C@]3(C)CC/C=C(\C)CC[C@@H]12` (stereo partly drawn), the IC50 with U-937 is 2.2 µM; in the experiment with Jurkat it was 1.9 µM; in the experiment on MCF7, 9.4 µM; with HL-60 it was 0.9 µM; with Caco-2, 10.4 µM; in the experiment on HCT-116 it was 5.9 µM.

Consider `CC(C)=CCCC(C)(O)[C@H]1CC(=O)C(CO)=C[C@@H]1O` (stereo partly drawn) [ANTHEMINONE A], for which the IC50 with U-937 came out at 6.2 µM; with Jurkat, 9 µM; with MCF7, 21 µM; in the experiment with HL-60, 7.6 µM; in the experiment on Caco-2, 11 µM; in the experiment on HCT-116, 15 µM.

In the case of `C=C1C(=O)C[C@@H](C(C)(O)CCC=C(C)C)[C@H](O)[C@H]1O` (stereo partly drawn) [ANTHEMINONE C], the IC50 with U-937 turned out to be 7.4 µM; in the experiment with Jurkat, 8.4 µM; in the experiment with MCF7 it was 15 µM; in the experiment with HL-60 it was 3.2 µM; with Caco-2, 9.4 µM; in the experiment with HCT-116, 19 µM.
